Data published in US6180378A, “Immobilization of bioactive protein in phyllosilicates” (The United States of America as represented by the …, priority 1999, dated 2001).

How the values were obtained:
[1] = molecular target: T1, soybean lipoxygenase (LOX, type I-B) immobilized in crosslinked phyllosilicate (TMOS-crosslinked montmorillonite) (Glycine max, UniProt P08170); test: LOX oxidation of linoleic acid, hydroperoxide (HPOD) formation, immobilized enzyme; assay type: biochemical; settings: substrate linoleic acid 0-20 μmoles; Lineweaver-Burk plot; LOX immobilized in crosslinked phyllosilicates
T1 construct: purchased Sigma, St. Louis, Mo
T1 sequence (P08170 1-839): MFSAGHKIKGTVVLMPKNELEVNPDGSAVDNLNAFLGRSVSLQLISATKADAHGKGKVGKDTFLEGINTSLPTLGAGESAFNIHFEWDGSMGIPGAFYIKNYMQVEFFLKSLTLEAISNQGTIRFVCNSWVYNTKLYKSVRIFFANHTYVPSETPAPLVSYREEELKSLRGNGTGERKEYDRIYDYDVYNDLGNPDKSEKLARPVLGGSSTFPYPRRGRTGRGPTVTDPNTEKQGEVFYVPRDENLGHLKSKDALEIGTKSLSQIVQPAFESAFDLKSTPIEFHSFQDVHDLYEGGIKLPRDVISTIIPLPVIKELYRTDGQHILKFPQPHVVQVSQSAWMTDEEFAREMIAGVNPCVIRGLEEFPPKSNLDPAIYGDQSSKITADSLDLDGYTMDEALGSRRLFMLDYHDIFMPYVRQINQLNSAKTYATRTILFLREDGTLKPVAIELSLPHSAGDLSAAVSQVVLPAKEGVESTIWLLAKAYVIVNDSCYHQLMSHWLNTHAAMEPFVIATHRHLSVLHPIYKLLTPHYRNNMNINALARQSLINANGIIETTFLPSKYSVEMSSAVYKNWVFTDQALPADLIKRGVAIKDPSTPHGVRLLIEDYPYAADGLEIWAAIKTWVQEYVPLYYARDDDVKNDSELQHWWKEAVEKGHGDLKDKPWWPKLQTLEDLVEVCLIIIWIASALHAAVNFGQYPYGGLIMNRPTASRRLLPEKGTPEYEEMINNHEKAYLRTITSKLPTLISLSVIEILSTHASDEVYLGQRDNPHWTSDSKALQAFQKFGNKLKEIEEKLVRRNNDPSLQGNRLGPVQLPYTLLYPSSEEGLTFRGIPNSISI
Method: Measurement of Enzymatic Activity. The activity of the immobilized lipoxygenase was assayed by measurement of hydroperoxide formation (Parra-Diaz, D. et al. [1993] supra). An aliquot of the substrate (5 μmoles of linoleic acid) dissolved in methylene chloride was placed in a 10 mL flask and evaporated to dryness under a stream of nitrogen. The reaction medium containing 0.2 mL of 100 mM deoxychlorate (DOC) and 1.8 mL of sodium borate buffer (0.2 M, pH 9.0) was added to the substrate, and the mixture was then shaken at 250 rpm for 0.5 h at 15° C. The reaction was initiated by adding a suitable amount (approximately 0.15 mg) free or immobilized LOX. Oxidation was conducted at 15° C. with agitation at 250 rpm for two hours. The reaction was quenched by adding 400 μL of 1 M citric add. Linoleic acid hydroperoxide was isolated by extracting the reaction mixture twice with 2 mL chloroform:methanol (2/1, v/v). After removing the solvent under a stream of nitrogen, the hydroperoxide was redissolved in 3 mL ethanol. The amount of hydroperoxide was determined spectrophotometrically by the xylenol orange method (Jiang, T.-Y. et al. [1991] Lipids 26:853-856). […] All results were corrected by subtracting the reading from controls without enzymes. […]
Effect of substrate concentration. The rate of hydroperoxide (HPOD) formation was measured at linoleic acid concentrations ranging from 0-20 μmoles. […]

[2] = molecular target: T2, free soybean lipoxygenase (LOX, type I-B) (Glycine max, UniProt P08170); test: LOX oxidation of linoleic acid, hydroperoxide (HPOD) formation, free enzyme; assay type: biochemical; settings: substrate linoleic acid; free LOX under similar conditions
T2 sequence (P08170 1-839): T1 sequence (P08170 1-839)
Method: Measurement of Enzymatic Activity. The activity of the immobilized lipoxygenase was assayed by measurement of hydroperoxide formation (Parra-Diaz, D. et al. [1993] supra). An aliquot of the substrate (5 μmoles of linoleic acid) dissolved in methylene chloride was placed in a 10 mL flask and evaporated to dryness under a stream of nitrogen. The reaction medium containing 0.2 mL of 100 mM deoxychlorate (DOC) and 1.8 mL of sodium borate buffer (0.2 M, pH 9.0) was added to the substrate, and the mixture was then shaken at 250 rpm for 0.5 h at 15° C. The reaction was initiated by adding a suitable amount (approximately 0.15 mg) free or immobilized LOX. Oxidation was conducted at 15° C. with agitation at 250 rpm for two hours. The reaction was quenched by adding 400 μL of 1 M citric add. Linoleic acid hydroperoxide was isolated by extracting the reaction mixture twice with 2 mL chloroform:methanol (2/1, v/v). After removing the solvent under a stream of nitrogen, the hydroperoxide was redissolved in 3 mL ethanol. The amount of hydroperoxide was determined spectrophotometrically by the xylenol orange method (Jiang, T.-Y. et al. [1991] Lipids 26:853-856). Standards were prepared by diluting a commercial cumene peroxide. […]

SMILES: CCCCC/C=C\C/C=C\CCCCCCCC(=O)O [linoleic acid]
- Km [1]: 1700 µM
- Vmax [1]: 0.023 µmol/min
- Km [2]: 2500 µM
- Vmax [2]: 0.056 mol/min
